Measured values from patent US9512107B2, “Therapeutically active compositions and their methods of use” (Agios Pharmaceuticals, Inc., priority 2012, dated 2016).
Changes are numbered by the printed parent chain. pIC50: −log10 of the molar value.

Columns and labels:
IDH2 R140Q = target: T1, IDH2 R140Q (Homo sapiens, UniProt P48735, R140Q); experiment: IDH2 R140Q enzymatic assay (cofactor depletion, similar format); format: biochemical; conditions: read-out: Enz R140Q
T1 sequence (P48735 40-452 R140Q): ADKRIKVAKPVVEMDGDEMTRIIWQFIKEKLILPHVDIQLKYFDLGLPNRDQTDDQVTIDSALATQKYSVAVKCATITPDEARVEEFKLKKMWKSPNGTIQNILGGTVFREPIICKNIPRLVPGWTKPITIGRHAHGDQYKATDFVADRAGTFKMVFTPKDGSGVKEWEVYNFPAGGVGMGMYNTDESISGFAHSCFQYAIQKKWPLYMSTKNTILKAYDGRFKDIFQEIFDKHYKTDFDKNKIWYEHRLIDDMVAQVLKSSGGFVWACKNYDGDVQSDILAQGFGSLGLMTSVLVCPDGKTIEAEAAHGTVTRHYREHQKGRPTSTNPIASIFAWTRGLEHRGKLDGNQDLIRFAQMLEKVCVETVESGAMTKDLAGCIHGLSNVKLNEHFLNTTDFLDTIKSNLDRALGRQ

[1] = test system: U87MG pLVX-IDH2 R140Q-neo cells; experiment: U87MG pLVX-IDH2 R140Q-neo cell based assay, 2-HG in media by LC-MS at 48 hours; conditions: Homo sapiens, U-87 MG
In short: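 U87MG cells stably expressing IDH2 R140Q were seeded overnight, then exposed to compound at 0.2% final DMSO at 37 °C, 5% CO2. 2-HG in the medium was quantified by LC-MS at 48 h. Growth inhibition was read by CellTiter-Glo luminescence at 72 h.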

IDH2 R172K = target: T2, IDH2 R172K (Homo sapiens, UniProt P48735, R172K); experiment: IDH2 R172K enzymatic assay (NADPH cofactor depletion, diaphorase/resazurin readout); format: biochemical; conditions: read-out: Enz R172K
T2 sequence (P48735 40-452 R172K): T1 sequence (P48735 40-452 R140Q) with Q101R, R133K
In short: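 Compound was preincubated with IDH2 R172K for 1 h at room temperature, then the reaction was started with substrate mix containing 50 μM NADPH and 6.3 mM α-KG. After another 1 h at room temperature, stop mix with diaphorase and resazurin consumed the remaining NADPH, and resorufin fluorescence was read.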

Structure (SMILES) | pIC50 (IDH2 R140Q) | pIC50 [1] | pIC50 (IDH2 R172K)
CC(C)Nc1nc(Nc2ccnc(C(F)(F)F)c2)nc(-c2cccc(C(C)(F)F)n2)n1 [Compound 582, 6-[6-(1,1-Difluoro-ethyl)-pyridin-2-yl]-N-isopropyl-N′-(2-trifluoromethyl-pyridin-4-yl)-[1,3,5]triazine-2,4-diamine] | 6.00 to 7.00 | > 7.00 | > 7.00
CC(C)Nc1nc(Nc2cc(F)cc(F)c2)nc(-c2cccc(C(C)(F)F)n2)n1 [Compound 583, 6-(6-(1,1-difluoroethyl)pyridin-2-yl)-N2-(3,5-difluorophenyl)-N4-isopropyl-1,3,5-triazine-2,4-diamine] | 6.00 to 7.00 | > 7.00 | > 7.00
CC(F)(F)c1cccc(-c2nc(NCC3CC3)nc(Nc3cc(F)cc(F)c3)n2)n1 [Compound 584, N2-(cyclopropylmethyl)-6-(6-(1,1-difluoroethyl)pyridin-2-yl)-N4-(3,5-difluorophenyl)-1,3,5-triazine-2,4-diamine] | 6.00 to 7.00 | > 7.00 | > 7.00
CC(C)(C)Nc1nc(Nc2cc(F)cc(F)c2)nc(-c2cccc(C(C)(F)F)n2)n1 [Compound 585, N2-(tert-butyl)-6-(6-(1,1-difluoroethyl)pyridin-2-yl)-N4-(3,5-difluorophenyl)-1,3,5-triazine-2,4-diamine] | 6.00 to 7.00 | > 7.00 | > 7.00
FC(F)(F)c1cc(Nc2nc(NC3CCOCC3)nc(-c3cccc(C(F)(F)F)n3)n2)ccn1 [Compound 587, N2-(tetrahydro-2H-pyran-4-yl)-6-(6-(trifluoromethyl)pyridin-2-yl)-N4-(2-(trifluoromethyl)pyridin-4-yl)-1,3,5-triazine-2,4-diamine] | 6.00 to 7.00 | > 7.00 | > 7.00
OC1CCCC1Nc1nc(Nc2ccnc(C(F)(F)F)c2)nc(-c2cccc(C(F)(F)F)n2)n1 (stereo not drawn) [Compound 588, 2-((4-(6-(trifluoromethyl)pyridin-2-yl)-6-((2-(trifluoromethyl)pyridin-4-yl)amino)-1,3,5-triazin-2-yl)amino)cyclopentanol] | 6.00 to 7.00 | > 7.00 | 6.00 to 7.00
CC(C)(C)Nc1nc(Nc2cc(F)cc(S(C)(=O)=O)c2)nc(-c2cccc(C(F)(F)F)n2)n1 [Compound 592, N-tert-Butyl-N′-(3-fluoro-5-methanesulfonyl-phenyl)-6-(6-trifluoromethyl-pyridin-2-yl)-[1,3,5]triazine-2,4-diamine] | 6.00 to 7.00 | > 7.00 | 6.00 to 7.00
CS(=O)(=O)c1cc(F)cc(Nc2nc(NCC3CC3)nc(-c3cccc(C(F)(F)F)n3)n2)c1 [Compound 593, N-Cyclopropylmethyl-N′-(3-fluoro-5-methanesulfonyl-phenyl)-6-(6-trifluoromethyl-pyridin-2-yl)-[1,3,5]triazine-2,4-diamine] | 6.00 to 7.00 | > 7.00 | > 7.00
CC(C)(O)CNc1nc(Nc2ccnc(C(F)(F)F)c2)nc(-c2cccc(C(C)(F)F)n2)n1 [Compound 594, 1-((4-(6-(1,1-difluoroethyl)pyridin-2-yl)-6-((2-(trifluoromethyl)pyridin-4-yl)amino)-1,3,5-triazin-2-yl)amino)-2-methylpropan-2-ol] | 6.00 to 7.00 | > 7.00 | 6.00 to 7.00
CC(F)(F)c1cccc(-c2nc(NCC3CC3)nc(Nc3ccnc(C(F)(F)F)c3)n2)n1 [Compound 595, N2-(cyclopropylmethyl)-6-(6-(1,1-difluoroethyl)pyridin-2-yl)-N4-(2-(trifluoromethyl)pyridin-4-yl)-1,3,5-triazine-2,4-diamine] | 6.00 to 7.00 | > 7.00 | > 7.00
CC(C)(C)Nc1nc(Nc2ccnc(C(C)(F)F)c2)nc(-c2cccc(C(C)(F)F)n2)n1 [Compound 596, N2-(tert-butyl)-6-(6-(1,1-difluoroethyl)pyridin-2-yl)-N4-(2-(1,1-difluoroethyl)pyridin-4-yl)-1,3,5-triazine-2,4-diamine] | 6.00 to 7.00 | > 7.00 | > 7.00
FC(F)(F)c1cc(Nc2nc(NCC3CC3)nc(-c3cccc(C(F)(F)F)n3)n2)ccn1 [Compound 597, N2-(cyclopropylmethyl)-6-(6-(trifluoromethyl)pyridin-2-yl)-N4-(2-(trifluoromethyl)pyridin-4-yl)-1,3,5-triazine-2,4-diamine] | 6.00 to 7.00 | > 7.00 | > 7.00
Fc1cc(F)cc(Nc2nc(NCC3CC3)nc(-c3cccc(C(F)(F)F)n3)n2)c1 [Compound 598, N2-(cyclopropylmethyl)-N4-(3,5-difluorophenyl)-6-(6-(trifluoromethyl)pyridin-2-yl)-1,3,5-triazine-2,4-diamine] | 6.00 to 7.00 | > 7.00 | > 7.00
CS(=O)(=O)c1cc(Cl)cc(Nc2nc(NCC3CC3)nc(-c3cccc(C(F)(F)F)n3)n2)c1 [Compound 599, N2-(3-chloro-5-(methylsulfonyl)phenyl)-N4-(cyclopropylmethyl)-6-(6-(trifluoromethyl)pyridin-2-yl)-1,3,5-triazine-2,4-diamine] | 6.00 to 7.00 | > 7.00 | > 7.00
CC(C)(C)Nc1nc(Nc2cc(Cl)cc(S(C)(=O)=O)c2)nc(-c2cccc(C(F)(F)F)n2)n1 [Compound 600, N2-(tert-butyl)-N4-(3-chloro-5-(methylsulfonyl)phenyl)-6-(6-(trifluoromethyl)pyridin-2-yl)-1,3,5-triazine-2,4-diamine] | 6.00 to 7.00 | > 7.00 | > 7.00
CC(C)(C)Nc1nc(Nc2cc(F)cc(F)c2)nc(-c2cccc(C(F)(F)F)n2)n1 [Compound 601, N2-(tert-butyl)-N4-(3,5-difluorophenyl)-6-(6-(trifluoromethyl)pyridin-2-yl)-1,3,5-triazine-2,4-diamine] | 6.00 to 7.00 | > 7.00 | > 7.00
CC(C)(C)Nc1nc(Nc2ccnc(C(F)(F)F)c2)nc(-c2cccc(C(F)(F)F)n2)n1 [Compound 602, N2-(tert-butyl)-6-(6-(trifluoromethyl)pyridin-2-yl)-N4-(2-(trifluoromethyl)pyridin-4-yl)-1,3,5-triazine-2,4-diamine] | 6.00 to 7.00 | > 7.00 | > 7.00
CC(C)Nc1nc(Nc2cc(F)cc(F)c2)nc(-c2cccc(C(F)(F)F)n2)n1 [Compound 603, N2-(3,5-difluorophenyl)-N4-isopropyl-6-(6-(trifluoromethyl)pyridin-2-yl)-1,3,5-triazine-2,4-diamine] | 6.00 to 7.00 | > 7.00 | > 7.00
CC(F)(F)c1cc(Nc2nc(NCC3CC3)nc(-c3cccc(C(F)(F)F)n3)n2)ccn1 [Compound 604, N2-(cyclopropylmethyl)-N4-(2-(1,1-difluoroethyl)pyridin-4-yl)-6-(6-(trifluoromethyl)pyridin-2-yl)-1,3,5-triazine-2,4-diamine] | 6.00 to 7.00 | > 7.00 | > 7.00
CC(C)(O)CNc1nc(Nc2ccnc(C(C)(F)F)c2)nc(-c2cccc(C(C)(F)F)n2)n1 [Compound 605, 1-((4-(6-(1,1-difluoroethyl)pyridin-2-yl)-6-((2-(1,1-difluoroethyl)pyridin-4-yl)amino)-1,3,5-triazin-2-yl)amino)-2-methylpropan-2-ol] | 6.00 to 7.00 | > 7.00 | 6.00 to 7.00
CC(C)(C)Nc1nc(Nc2ccnc(C3(C#N)CC3)c2)nc(-c2cccc(C(C)(F)F)n2)n1 [Compound 606, 1-(4-((4-(tert-butylamino)-6-(6-(1,1-difluoroethyl)pyridin-2-yl)-1,3,5-triazin-2-yl)amino)pyridin-2-yl)cyclopropanecarbonitrile] | 6.00 to 7.00 | > 7.00 | > 7.00
CS(=O)(=O)c1cccc(Nc2nc(NCC3CC3)nc(-c3cccc(C(F)(F)F)n3)n2)c1 [Compound 607, N2-(cyclopropylmethyl)-N4-(3-(methylsulfonyl)phenyl)-6-(6-(trifluoromethyl)pyridin-2-yl)-1,3,5-triazine-2,4-diamine] | 6.00 to 7.00 | > 7.00 | 6.00 to 7.00
CC(C)(C)Nc1nc(Nc2ccnc(C3(C#N)CC3)c2)nc(-c2cccc(C(F)(F)F)n2)n1 [Compound 608, 1-(4-((4-(tert-butylamino)-6-(6-(trifluoromethyl)pyridin-2-yl)-1,3,5-triazin-2-yl)amino)pyridin-2-yl)cyclopropanecarbonitrile] | 6.00 to 7.00 | > 7.00 | > 7.00
